In patent US20250034134A1, “15-PGDH INHIBITOR AND USE THEREOF” (Wuhan Humanwell Innovative Drug Research and Development …, priority 2021, published 2025):

Tests used:
15-PGDH = 15-PGDH (Homo sapiens (Human), UniProt P15428); assay: Inhibition test of compounds on 15-PGDH enzyme; format: biochemical
Experimental: 15-PGDH (R&D Systems, Cat. No.: 5660-DH-010) was prepared to twice the final concentration, i.e., 30 nM, using Assay Buffer (50 mM Tris-HCl, pH 7.5, 0.01vol % Tween 20). The obtained mixture was then added to a 384-well white plate (Cisbio Bioassays, Cat. No. 66PL384025) at 8 μL/well. Negative control wells (with Assay Buffer only and without enzyme) were set. The compound was then prepared to 4 times the final concentration using Assay Buffer, i.e., diluted 3-fold to 10 concentrations starting from 4000 nM. The obtained mixture was added to the above white plate at 4 μL/well, mixed well, centrifuged at 1000 rpm for 1 minute, and incubated at 25° C. for 10 minutes. Both positive control wells (with 15-PGDH only) and negative control wells (without 15-PGDH) were set. A mixture of NAD^+(Select, Cat. No. S2518) and PGE2 (R&D Systems, Cat. No.: 2296/10) was then prepared using Assay Buffer. NAD^+ and PGE2 were prepared to four times their final concentrations, i.e., 2 mM and 0.12 mM, respectively, using Assay Buffer. The obtained mixture was then added to the above white plate at 4 μL/well, mixed well, centrifuged at 1000 rpm for 1 minute, and incubated at 25° C. for 30 minutes for the reaction. The fluorescence was detected at an excitation wavelength of 340 nm and an emission wavelength of 485 nm using instrument TECAN SPARK 20M. The IC50 value was calculated using four-parameter fitting with GraphPad Prism 8.0.

A549 cells = assay: Effect of compounds on PGE2 levels in A549 cell supernatant; format: cell-based; conditions: 20 nM compound, about 12 hours, after IL-10 stimulation; ELISA
Experimental: A549 cells (Procell, Wuhan) were cultured in F12K+10% FBS. The cells with good status in log phase were selected for the experiment, digested, counted, and inoculated into a 24-well plate at 8000 cells per well. The cells were cultured in a 37° C., 5% CO2 incubator overnight. After adherence, the cells were transferred to a culture medium containing 0.5% FBS and cultured for about 10 hours. IL-10 was added to each well (final concentration of 20 ng/mL, 1 mL per well), and a control group (without IL-10) was set up. After stimulation with IL-10 for about 24 hours, the cell culture medium of each well was aspirated and discarded, and the wells were gently washed with fresh culture medium containing 0.5% FBS. 400 μL of culture medium containing the compound of different concentrations (20 nM and 2500 nM) was added to each well and cultured for about 12 hours. The supernatant was collected and PGE2 was detected using ELISA kit (R&D Systems, Cat. No.: KGE004B).

15-PGDH, sequence (P15428 whole entry): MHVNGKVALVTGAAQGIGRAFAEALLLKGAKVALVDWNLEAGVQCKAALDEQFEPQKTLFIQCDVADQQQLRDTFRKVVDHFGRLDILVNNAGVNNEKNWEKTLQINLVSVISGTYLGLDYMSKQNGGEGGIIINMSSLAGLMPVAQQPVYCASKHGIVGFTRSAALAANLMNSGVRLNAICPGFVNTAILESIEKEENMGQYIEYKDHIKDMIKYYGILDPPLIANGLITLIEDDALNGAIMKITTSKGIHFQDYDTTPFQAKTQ

SMILES | IC50 (15-PGDH) | Fold increase of PGE2 in A549 cell supernatant (A549 cells)
Cn1ccc2cc(N3CC4CC4c4cc(C(=O)N5CCC(F)(F)CC5)cnc43)ccc2c1=O (single isomer, unassigned) [Compound I-12A] | 1.52 nM | –
Cn1ccc2cc(N3CC4CC4c4cc(C(=O)N5CCC(F)(F)CC5)cnc43)ccc2c1=O (single isomer, unassigned) [Compound I-12B] | 7.42 nM | –
[2H]C([2H])([2H])n1nc2cc(N3CC4CC4c4cc(C(=O)N5CCC(F)(F)CC5)cnc43)ccn2c1=O (single isomer, unassigned) [Compound I-25A] | 15.8 nM | –
[2H]C([2H])([2H])n1nc2cc(N3CC4CC4c4cc(C(=O)N5CCC(F)(F)CC5)cnc43)ccn2c1=O (single isomer, unassigned) [Compound I-25B] | 3.78 nM | –
CN1Cc2cc(N3CC4CC4c4cc(C(=O)N5CCC(F)(F)CC5)cnc43)ccc2C1=O (stereo not shown) [Compound I-1, 5-(6-(4,4-difluoropiperidine-1-carbonyl)-1,1a,2,7b-tetrahydro-3H-cyclopropa[c][1,8]naphthyridin-3-yl)-2-methylisoindolin-1-one] | 4.3 nM | 4.3
CN1Cc2cc(N3CC4CC4c4cc(C(=O)N5CCC(F)(F)CC5)cnc43)cnc2C1=O (stereo not shown) [Compound I-2, 3-(6-(4,4-difluoropiperidine-1-carbonyl)-1,1a,2,7b-tetrahydro-3H-cyclopropa[c][1,8]naphthyridin-3-yl)-6-methyl-5,6-dihydro-7H-pyrrolo[3,4-b]pyridin-7-one] | 5.15 nM | 5.23
CNC(=O)c1ccc(N2CC3CC3c3cc(C(=O)N4CCC(F)(F)CC4)cnc32)cc1F (stereo not shown) [Compound I-9, 4-(6-(4,4-difluoropiperidine-1-carbonyl)-1,1a,2,7b-tetrahydro-3H-cyclopropa[c][1,8]naphthyridin-3-yl)-2-fluoro-N-methylbenzamide] | 9.51 nM | –
N#Cc1ccc(N2CC3CC3c3cc(C(=O)N4CCC(F)(F)CC4)cnc32)cc1 (stereo not shown) [Compound I-11, 4-(6-(4,4-difluoropiperidine-1-carbonyl)-1,1a,2,7b-tetrahydro-3H-cyclopropa[c][1,8]naphthyridin-3-yl)benzonitrile] | 3.8 nM | 1.88
Cn1ncc2cc(N3CC4CC4c4cc(C(=O)N5CCC(F)(F)CC5)ccc43)ccc2c1=O (stereo not shown) [Compound I-13, 6-(6-(4,4-difluoropiperidine-1-carbonyl)-1,1a,2,7b-tetrahydro-3H-cyclopropa[c]quinolin-3-yl)-2-methylphthalazin-1(2H)-one] | 4.03 nM | 6.1
Cn1ncc2cc(N3CC4CC4c4cc(C(=O)N5CCC(F)(F)CC5)ccc43)cnc2c1=O (stereo not shown) [Compound I-14, 3-(6-(4,4-difluoropiperidine-1-carbonyl)-1,1a,2,7b-tetrahydro-3H-cyclopropa[c]quinolin-3-yl)-7-methylpyrido[2,3-d]pyridazin-8(7H)-one] | 8.6 nM | 2.3
Cn1cnc2cc(N3CC4CC4c4cc(C(=O)N5CCC(F)(F)CC5)ccc43)cnc2c1=O (stereo not shown) [Compound I-15, 7-(6-(4,4-difluoropiperidine-1-carbonyl)-1,1a,2,7b-tetrahydro-3H-cyclopropa[c]quinolin-3-yl)-3-methylpyrido[3,2-d]pyrimidin-4(3H)-one] | 5.7 nM | 3.7
O=C(c1cnc2c(c1)C1CC1CN2c1ccn2ncnc2c1)N1CCC(F)(F)CC1 (stereo not shown) [Compound I-16, (3-([1,2,4]triazolo[1,5-a]pyridin-7-yl)-1a,2,3,7b-tetrahydro-1H-cyclopropa[c][1,8]naphthyridin-6-yl)(4,4-difluoropiperidin-1-yl)methanone] | 5.4 nM | 3.7
O=C(c1cnc2c(c1)C1CC1CN2c1ccn2cnnc2c1)N1CCC(F)(F)CC1 (stereo not shown) [Compound I-17, (3-([1,2,4]triazolo[4,3-a]pyridin-7-yl)-1a,2,3,7b-tetrahydro-1H-cyclopropa[c][1,8]naphthyridin-6-yl)(4,4-difluoropiperidin-1-yl)methanone] | 4.5 nM | 2.2
CN1Cc2cc(N3CC4CC4c4cc(C(=O)N5CCC(F)(F)CC5)cnc43)ncc2C1=O (stereo not shown) [Compound I-18, 6-(6-(4,4-difluoropiperidine-1-carbonyl)-1,1a,2,7b-tetrahydro-3H-cyclopropa[c][1,8]naphthyridin-3-yl)-2-methyl-1,2-dihydro-3H-pyrrolo[3,4-c]pyridin-3-one] | 20 nM | –
CN1C(=O)c2ncc(N3CC4CC4c4cc(C(=O)N5CCC(F)(F)CC5)cnc43)cc2C12CC2 (stereo not shown) [Compound I-19, 3′-(6-(4,4-difluoropiperidine-1-carbonyl)-1,1a,2,7b-tetrahydro-3H-cyclopropa[c][1,8]naphthyridin-3-yl)-6′-methylspiro[cyclopropane-1,5′-pyrrolo[3,4-b]pyridin]-7′(6′H)-one] | 3.72 nM | 4.72
Cn1nc2cc(N3CC4CC4c4cc(C(=O)N5CC(C)(F)C5)cnc43)ccn2c1=O (stereo not shown) [Compound I-20, 7-(6-(3-fluoro-3-methylazetidine-1-carbonyl)-1a,2-dihydro-1H-cyclopropa[c][1,8]naphthyridin-3(7bH)-yl)-2-methyl-[1,2,4]triazolo[4,3-a]pyridin-3(2H)-one] | 2.83 nM | 2.0
Cn1nc2cc(N3CC4CC4c4cc(C(=O)N5CCC(F)(F)C5)cnc43)ccn2c1=O (stereo not shown) [Compound I-21, 7-(6-(3,3-difluoropyrrolidine-1-carbonyl)-1,1a,2,7b-tetrahydro-3H-cyclopropa[c][1,8]naphthyridin-3-yl)-2-methyl-[1,2,4]triazolo[4,3-a]pyridin-3(2H)-one] | 4.95 nM | 2.3
Cn1nc2cc(N3CC4CC4c4cc(C(=O)N5CCOCC5)cnc43)ccn2c1=O (stereo not shown) [Compound I-22, 2-methyl-7-(6-(morpholine-4-carbonyl)-1,1a,2,7b-tetrahydro-3H-cyclopropa[c][1,8]naphthyridin-3-yl)-[1,2,4]triazolo[4,3-a]pyridin-3(2H)-one] | 10.2 nM | –
Cn1nc2cc(N3CC4CC4c4cc(C(=O)N5CCCC(C(F)F)C5)cnc43)ccn2c1=O (stereo not shown) [Compound I-23, 7-(6-(3-(difluoromethyl)piperidine-1-carbonyl)-1,1a,2,7b-tetrahydro-3H-cyclopropa[c][1,8]naphthyridin-3-yl)-2-methyl-[1,2,4]triazolo[4,3-a]pyridin-3(2H)-one] | 4.26 nM | 2.93
Cn1nc2cc(N3CC4CC4c4cc(C(=O)N5CCCC(F)(F)C5)cnc43)ccn2c1=O (stereo not shown) [Compound I-24, 7-(6-(3,3-difluoropiperidine-1-carbonyl)-1,1a,2,7b-tetrahydro-3H-cyclopropa[c][1,8]naphthyridin-3-yl)-2-methyl-[1,2,4]triazolo[4,3-a]pyridin-3(2H)-one] | 4.23 nM | 2.95
[2H]C([2H])([2H])n1nc2cc(N3CC4CC4c4cc(C(=O)N5CCC(F)(F)CC5)cnc43)ccn2c1=O (stereo not shown) [Compound I-25, 7-(6-(4,4-difluoropiperidine-1-carbonyl)-1,1a,2,7b-tetrahydro-3H-cyclopropa[c][1,8]naphthyridin-3-yl)-2-(methyl-d3)-[1,2,4]triazolo[4,3-a]pyridin-3(2H)-one] | 2.59 nM | –
Cn1nc2cc(N3CC4CC4c4cc(C(=O)N5CCCC(C(F)(F)F)C5)cnc43)ccn2c1=O (stereo not shown) [Compound I-26, 2-methyl-7-(6-(3-(trifluoromethyl)piperidine-1-carbonyl)-1,1a,2,7b-tetrahydro-3H-cyclopropa[c] [1,8]naphthyridin-3-yl)-[1,2,4]triazolo[4,3-a]pyridin-3(2H)-one] | 9.9 nM | 4.82
Cn1nc2cc(N3CC4CC4c4cc(C(=O)N5CCCC(F)C5)cnc43)ccn2c1=O (stereo not shown) [Compound I-27, 7-(6-(3-fluoropiperidine-1-carbonyl)-1,1a,2,7b-tetrahydro-3H-cyclopropa[c][1,8]naphthyridin-3-yl)-2-methyl-[1,2,4]triazolo[4,3-a]pyridin-3(2H)-one] | 5.7 nM | 2.60
Cn1nc2cc(N3CC4CC4c4cc(C(=O)N5CC6CC6C5)cnc43)ccn2c1=O (stereo not shown) [Compound I-29, 7-(6-(3-azabicyclo[3.1.0]hexane-3-carbonyl)-1,1a,2,7b-tetrahydro-3H-cyclopropa[c][1,8]naphthyridin-3-yl)-2-methyl-[1,2,4]triazolo[4,3-a]pyridin-3(2H)-one] | 5.3 nM | 2.3
